Assay results reported in patent publication US6737383B1, “Herbicidal oxadiazolidines” (priority 1999, dated 2004).

Columns and labels:
blackgrass = test: Test B pre/postemergence blackgrass; type: in vivo, Alopecurus myosuroides
Procedure, shortened: (§1)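 Herbicidal effect was estimated by eye on a ten-point control scale after plants spent twelve to sixteen days in a greenhouse following soil or foliar treatment. Foliar sprays targeted plants at one to four leaves; all doses were formulated in a non-phytotoxic solvent with surfactant.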

pigweed = test: Test B pre/postemergence pigweed; type: in vivo, Amaranthus retroflexus
Procedure, shortened: as §1

sugar beet = test: Test B pre/postemergence sugar beet; type: in vivo, Beta vulgaris
Procedure, shortened: as §1

rape = test: Test B pre/postemergence rape; type: in vivo, Brassica napus
Procedure, shortened: as §1

surinam grass = test: Test B pre/postemergence surinam grass; type: in vivo, Brachiaria decumbens
Procedure, shortened: as §1

soybean = test: Test B pre/postemergence soybean; type: in vivo, Glycine max
Procedure, shortened: as §1

bedstraw = test: Test B pre/postemergence bedstraw; type: in vivo, Galium aparine
Procedure, shortened: as §1

wheat = test: Test B pre/postemergence wheat; type: in vivo, Triticum aestivum
Procedure, shortened: as §1

smallflower flatsedge = test: Test B flood test smallflower flatsedge; type: in vivo, Cyperus difformis
Procedure, shortened: (§2)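 Read-out is a visual response score from 0 (no effect) to 10 (complete control), assigned by comparison with untreated controls. Treatment was applied at the 2-leaf stage, and plants stayed in the greenhouse for twelve to sixteen days before scoring.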

giant foxtail = test: Test B pre/postemergence giant foxtail; type: in vivo, Setaria faberii
Procedure, shortened: as §1

cocklebur = test: Test B pre/postemergence cocklebur; type: in vivo, Xanthium strumarium
Procedure, shortened: as §1

wild oat = test: Test B pre/postemergence wild oat; type: in vivo, Avena fatua
Procedure, shortened: as §1

bamyardgrass = test: Test B flood test barnyardgrass; type: in vivo, Echinochloa crus-galli
Procedure, shortened: as §2

morningglory = test: Test B pre/postemergence morningglory; type: in vivo, Ipomoea hederacea
Procedure, shortened: as §1

duck salad = test: Test B flood test duck salad; type: in vivo, Heteranthera limosa
Procedure, shortened: as §2

purple nutsedge = test: Test B pre/postemergence purple nutsedge; type: in vivo, Cyperus rotundus
Procedure, shortened: as §1

[1] = Preemergence, Rate 62 g/ha, scale of 0 to 10 where 0 is no effect and 10 is complete control
[2] = Preemergence, Rate 125 g/ha, 0 is no effect, 10 is complete control
[3] = Preemergence, Rate 250 g/ha, scale 0 to 10, 0 is no effect, 10 is complete control
[4] = Preemergence, Rate 500 g/ha, scale 0 (no effect) to 10 (complete control)
[5] = Preemergence, Rate 500 g/ha, scale of 0 to 10 where 0 is no effect and 10 is complete control
[6] = Rate 62 g/ha, Postemergence, scale of 0 to 10 where 0 is no effect and 10 is complete control
[7] = Rate 125 g/ha, Postemergence, scale 0 to 10
[8] = Rate 500 g/ha, Postemergence, scale 0 to 10
[9] = Rate 62 g/ha, headed Pre-emergence (flood test species), scale 0 to 10 (0 no effect, 10 complete control)
[10] = Rate 125 g/ha, Pre-emergence, flood test species, scale 0 to 10 where 0 is no effect and 10 is complete control
[11] = Rate 250 g/ha, Pre-emergence, flood-test species, scale 0 to 10, 0 is no effect, 10 is complete control
[12] = Rate 500 g/ha, headed Pre-emergence (flood test species), scale 0 to 10 (0 no effect, 10 complete control)

SMILES: CCc1cccc(C)c1-n1c(=O)on(C(=O)N(c2ccc(F)cc2)C(C)C)c1=O [Compound 201]
- Blackgrass plant response rating (blackgrass; [1]): 0
- Blackgrass plant response rating (0 to 10 scale) (blackgrass; [2]): 0
- Blackgrass plant response rating (blackgrass; [3]): 4
- Blackgrass plant response rating (blackgrass; [4]): 4
- Plant response rating, Blackgrass (blackgrass; [5]): 4
- Blackgrass plant response rating (blackgrass; [6]): 0
- Blackgrass plant response rating (blackgrass; [7]): 0
- Plant response rating (0 to 10; 0 is no effect, 10 is complete control), Blackgrass (blackgrass; Rate 250 g/ha, Postemergence): 0
- Blackgrass plant response rating (blackgrass; [8]): 4
- Redroot pigweed plant response rating (pigweed; [1]): 0
- Redroot pigweed plant response rating (0 to 10 scale) (pigweed; [2]): 0
- Redroot pigweed plant response rating (pigweed; [3]): 0
- Redroot pigweed plant response rating (pigweed; [4]): 0
- Plant response rating, Redroot pigweed (pigweed; [5]): 0
- Redroot pigweed plant response rating (pigweed; [6]): 0
- Redroot pigweed plant response rating (pigweed; [7]): 0
- Plant response rating (0 to 10; 0 is no effect, 10 is complete control), Redroot pigweed (pigweed; Rate 250 g/ha, Postemergence): 0
- Redroot pigweed plant response rating (pigweed; [8]): 3
- Sugarbeets plant response rating (sugar beet; [1]): 0
- Sugarbeets plant response rating (0 to 10 scale) (sugar beet; [2]): 0
- Sugarbeets plant response rating (sugar beet; [3]): 0
- Sugarbeets plant response rating (sugar beet; [4]): 0
- Plant response rating, Sugarbeets (sugar beet; [5]): 0
- Sugarbeets plant response rating (sugar beet; [6]): 0
- Sugarbeets plant response rating (sugar beet; [7]): 0
- Plant response rating (0 to 10; 0 is no effect, 10 is complete control), Sugarbeets (sugar beet; Rate 250 g/ha, Postemergence): 3
- Sugarbeets plant response rating (sugar beet; [8]): 4
- Rape plant response rating (rape; [1]): 0
- Rape plant response rating (0 to 10 scale) (rape; [2]): 0
- Rape plant response rating (rape; [3]): 0
- Rape plant response rating (rape; [4]): 0
- Plant response rating, Rape (rape; [5]): 0
- Rape plant response rating (rape; [6]): 0
- Rape plant response rating (rape; [7]): 0
- Plant response rating (0 to 10; 0 is no effect, 10 is complete control), Rape (rape; Rate 250 g/ha, Postemergence): 0
- Rape plant response rating (rape; [8]): 0
- B. signalgrass plant response rating (surinam grass; [1]): 0
- B. signalgrass plant response rating (0 to 10 scale) (surinam grass; [2]): 0
- B. signalgrass plant response rating (surinam grass; [3]): 0
- B. signalgrass plant response rating (surinam grass; [4]): 0
- Plant response rating, B. signalgrass (surinam grass; [5]): 4
- B. signalgrass plant response rating (surinam grass; [6]): 0
- B. signalgrass plant response rating (surinam grass; Rate 125 g/ha, Postemergence, scale 0 (no effect) to 10 (complete control)): 0
- Plant response rating, B. signalgrass (surinam grass; Rate 250 g/ha, Postemergence, scale 0 to 10, 0 is no effect, 10 is complete control): 0
- B. signalgrass plant response rating (surinam grass; Rate 500 g/ha, Postemergence, scale 0 to 10, 0 no effect, 10 complete control): 0
- Soybean plant response rating (soybean; [1]): 0
- Soybean plant response rating (0 to 10 scale) (soybean; [2]): 0
- Soybean plant response rating (soybean; [3]): 0
- Soybean plant response rating (soybean; [4]): 0
- Plant response rating, Soybean (soybean; [5]): 0
- Soybean plant response rating (soybean; [6]): 1
- Soybean plant response rating (soybean; [7]): 1
- Plant response rating (0 to 10; 0 is no effect, 10 is complete control), Soybean (soybean; Rate 250 g/ha, Postemergence): 2
- Soybean plant response rating (soybean; [8]): 3
- Bedstraw plant response rating (bedstraw; [1]): 0
- Bedstraw plant response rating (0 to 10 scale) (bedstraw; [2]): 0
- Bedstraw plant response rating (bedstraw; [3]): 0
- Bedstraw plant response rating (bedstraw; [4]): 0
- Plant response rating, Bedstraw (bedstraw; [5]): 0
- Bedstraw plant response rating (bedstraw; [6]): 0
- Bedstraw plant response rating (bedstraw; [7]): 0
- Plant response rating (0 to 10; 0 is no effect, 10 is complete control), Bedstraw (bedstraw; Rate 250 g/ha, Postemergence): 0
- Bedstraw plant response rating (bedstraw; [8]): 0
- Wheat plant response rating (wheat; [1]): 0
- Wheat plant response rating (wheat; [3]): 0
- Wheat plant response rating (wheat; [4]): 0
- Plant response rating, Wheat (wheat; [5]): 2
- Wheat plant response rating (wheat; [6]): 0
- Wheat plant response rating (wheat; [7]): 0
- Plant response rating (0 to 10; 0 is no effect, 10 is complete control), Wheat (wheat; Rate 250 g/ha, Postemergence): 0
- S. Flatsedge plant response rating (smallflower flatsedge; [9]): 0
- S. Flatsedge plant response rating (smallflower flatsedge; [10]): 0
- S. Flatsedge plant response rating (smallflower flatsedge; [11]): 0
- S. Flatsedge plant response rating (smallflower flatsedge; Rate 500 g/ha, Pre-emergence, flood test species, scale 0 to 10 (0 no effect, 10 complete control)): 7
- Giant foxtail plant response rating (giant foxtail; [1]): 2
- Giant foxtail plant response rating (0 to 10 scale) (giant foxtail; [2]): 6
- Giant foxtail plant response rating (giant foxtail; [3]): 8
- Giant foxtail plant response rating (giant foxtail; [4]): 10
- Plant response rating, Giant foxtail (giant foxtail; [5]): 10
- Giant foxtail plant response rating (giant foxtail; [6]): 0
- Giant foxtail plant response rating (giant foxtail; [7]): 0
- Plant response rating (0 to 10; 0 is no effect, 10 is complete control), Giant foxtail (giant foxtail; Rate 250 g/ha, Postemergence): 0
- Giant foxtail plant response rating (giant foxtail; [8]): 0
- Cocklebur plant response rating (cocklebur; [1]): 0
- Cocklebur plant response rating (0 to 10 scale) (cocklebur; [2]): 0
- Cocklebur plant response rating (cocklebur; [3]): 0
- Cocklebur plant response rating (cocklebur; [4]): 0
- Plant response rating, Cocklebur (cocklebur; [5]): 0
- Cocklebur plant response rating (cocklebur; [6]): 0
- Cocklebur plant response rating (cocklebur; [7]): 0
- Plant response rating (0 to 10; 0 is no effect, 10 is complete control), Cocklebur (cocklebur; Rate 250 g/ha, Postemergence): 0
- Cocklebur plant response rating (cocklebur; [8]): 0
- Wild oats plant response rating (wild oat; [1]): 0
- Wild oats plant response rating (wild oat; [3]): 3
- Wild oats plant response rating (wild oat; [4]): 0
- Plant response rating, Wild oats (wild oat; [5]): 5
- Wild oats plant response rating (wild oat; [6]): 0
- Wild oats plant response rating (wild oat; [7]): 0
- Plant response rating (0 to 10; 0 is no effect, 10 is complete control), Wild oats (wild oat; Rate 250 g/ha, Postemergence): 0
- Barnyardgrass plant response rating (bamyardgrass; [9]): 0
- Barnyardgrass plant response rating (bamyardgrass; [10]): 0
- Barnyardgrass plant response rating (bamyardgrass; [11]): 0
- Plant response rating, Barnyardgrass (bamyardgrass; [12]): 9
- Morningglory plant response rating (morningglory; [1]): 0
- Morningglory plant response rating (0 to 10 scale) (morningglory; [2]): 0
- Morningglory plant response rating (morningglory; [3]): 0
- Morningglory plant response rating (morningglory; [4]): 0
- Plant response rating, Morningglory (morningglory; [5]): 0
- Morningglory plant response rating (morningglory; [6]): 1
- Morningglory plant response rating (morningglory; [7]): 1
- Plant response rating (0 to 10; 0 is no effect, 10 is complete control), Morningglory (morningglory; Rate 250 g/ha, Postemergence): 1
- Morningglory plant response rating (morningglory; [8]): 3
- Ducksalad plant response rating (duck salad; [9]): 0
- Ducksalad plant response rating (duck salad; [10]): 0
- Ducksalad plant response rating (duck salad; [11]): 0
- Plant response rating, Ducksalad (duck salad; [12]): 2
- Nutsedge plant response rating (purple nutsedge; [1]): 0
- Nutsedge plant response rating (0 to 10 scale) (purple nutsedge; [2]): 0
- Nutsedge plant response rating (purple nutsedge; [4]): 0
- Nutsedge plant response rating (purple nutsedge; [6]): 0
- Nutsedge plant response rating (purple nutsedge; [7]): 0
- Plant response rating (0 to 10; 0 is no effect, 10 is complete control), Nutsedge (purple nutsedge; Rate 250 g/ha, Postemergence): 0
- Nutsedge plant response rating (purple nutsedge; [8]): 0
